Source: patent US6020305A, “Treatment of stress-induced skin disease by corticotropin releasing hormone antagonists and skin mast cell degranulation inhibitors” (Kos Pharmaceuticals, Inc., priority 1996, dated 2000)
Ends that are not written are not given here.

Tests used:
skin mast cells [1] = assay: Effect of drug pretreatment on dye extravasation induced by CRH; format: in vivo, rat; conditions: for Dye Extravasation (color intensity) by CRH after drug pretreatment: drug 10^-4 M pretreatment, then CRH 10^-4 M, n = 3
Procedure: (§1) 1. For extravasation experiments, male Sprague/Dawley rats, each weighing approximately 350 g (Taconic Farms, Germantown, N.Y.), were anesthetized with a single intraperitoneal injection of 0.5 ml ketamine and 0.5 ml xylazine (20 mg/ml each) and then injected intravenously with 0.1 ml of 1% Evan's blue 60 min prior to treatment.
(§2) 3. The pretreatment solution, when appropriate, was drawn first in the syringe followed by CRH from which it was separated by an air bubble. The pretreatment solution was injected first and was allowed to remain in the skin for 1 min; the needle was then changed, the air bubble ejected and CRH was injected and allowed to stay in the skin for 5 min. The animal was then killed by asphyxiation over CO2 vapor and decapitated; the skin was removed, turned over and photographed.

skin mast cells [2] = assay: Dye (Evan's blue) extravasation after intradermal injection; format: in vivo, rat
Procedure: as §1, §2

skin mast cells [3] = assay: Skin mast cell degranulation at injection site, light microscopy (toluidine blue); format: in vivo, rat; conditions: for Mast Cell Degranulation, Deg. MC: count of degranulated mast cells
Source text: 4. In other rats, the skin was rapidly removed at the end of the injection period and was fixed in 4% paraformaldehyde for light microscopy (Theoharides et al., Int. Arch. Allergy Immunol. 102:352 (1993)), which is incorporated herein by reference in its entirety. The tissue was then frozen and thin sections (7 μ) were cut using a cryostat (Jung CM 3000, Leica, Luc. Deerfield, Ill.). The sections were stained with acidified (pH<2.5) toluidine blue (Sigma, St. Louis) and all mast cells were counted, by two different researchers blinded to the experimental conditions, at 400× magnification using a Diaphot inverted Nikon microscope (Don Santo, Mass.).

skin mast cells [4] = assay: Ultrastructural analysis of CRH-treated skin mast cells; format: in vivo, rat; conditions: CRH-injected sites
Source text: The effect of CRH on both vasodilation and mast cell activation was dose-dependent from 10^-4 M-10^-8 M (Table 1).

skin mast cells [5] = assay: Skin mast cell activation by CRH in rats treated neonatally with capsaicin; format: in vivo, rat; conditions: CRH 10^-4 M, neonatal capsaicin
pleural mast cells = assay: Histamine release from purified pleural mast cells; format: cell-based, rat
peritoneal mast cells = assay: Histamine release from purified peritoneal mast cells; format: cell-based, rat

## CN(C)CCC=C1c2ccccc2COc2ccccc21 [Doxepin, doxepin]
Skin mast cells [1]
  Dye Extravasation (color intensity) by CRH after drug pretreatment: blocked the CRH effect entirely

## OCCOCCN1CCN(C(c2ccccc2)c2ccc(Cl)cc2)CC1 (stereo not drawn) [Hydroxyzine, hydroxyzine]
Skin mast cells [1]
  Dye Extravasation (color intensity) by CRH after drug pretreatment: blocked the CRH effect entirely

## C[C@H](N)C(=O)NCC(=O)N[C@H]1CSSC[C@@H](C(=O)O)NC(=O)[C@H](CO)NC(=O)[C@H]([C@@H](C)O)NC(=O)[C@H](Cc2ccccc2)NC(=O)[C@H]([C@@H](C)O)NC(=O)[C@H](CCCCN)NC(=O)[C@H](Cc2c[nH]c3ccccc23)NC(=O)[C@H](Cc2ccccc2)NC(=O)[C@H](Cc2ccccc2)NC(=O)[C@H](CC(N)=O)NC(=O)[C@H](CCCCN)NC1=O [Somatostatin, somatostatin]
Skin mast cells [2]; 10^-12 M
  fluid extravasation, substance alone: still apparent
Skin mast cells [2]; alone, as strong as that seen with CRH
  fluid extravasation, substance alone: significant fluid extravasation
Skin mast cells [1]
  Dye Extravasation (color intensity) by CRH after drug pretreatment: more dye extravasation than CRH alone

## CC(C)(C)c1ccc(C(O)CCCN2CCC(C(O)(c3ccccc3)c3ccccc3)CC2)cc1 (stereo not drawn) [Terfenadine, terfenadine]
Skin mast cells [1]
  Dye Extravasation (color intensity) by CRH after drug pretreatment: reduced the CRH effect slightly

## Corticotropin-Releasing Hormone (SEEPPISLDLTFHLLREVLEMARAEQLAQQAHSNRKLMEII; ends and bridges not checked; UniProt P06850 154-194, looked up) [CRH, major regulator of the hypothalamic-pituitary-adrenal axis; peptide from Sigma]
Skin mast cells [2]; 10^-4 M-10^-8 M
  dose dependence of effect on vasodilation and mast cell activation: dose-dependent
Skin mast cells [2]; compared with equimolar C48/80 or SP
  skin vascular permeability, as evidenced by dye extravasation: marked increases
Skin mast cells [3]; 10^-4 M
  Mast Cell Degranulation, Deg. MC: 426
Skin mast cells [3]; 10^-5 M
  Mast Cell Degranulation, % total deg.: 37 % total
  Mast Cell Degranulation, Deg. MC: 327
Skin mast cells [3]; 10^-6 M
  Mast Cell Degranulation, % total deg.: 42 % total
  Mast Cell Degranulation, Deg. MC: 331
Skin mast cells [3]; 10^-7 M
  Mast Cell Degranulation, % total deg.: 37 % total
  Mast Cell Degranulation, Deg. MC: 329
Skin mast cells [3]; 10^-8 M
  Mast Cell Degranulation, % total deg.: 32 % total
  Mast Cell Degranulation, Deg. MC: 254
Skin mast cells [3]; 10^-9 M
  Mast Cell Degranulation, % total deg.: 28 % total
  Mast Cell Degranulation, Deg. MC: 202
Skin mast cells [3]; 10^-10 M
  Mast Cell Degranulation, % total deg.: 26 % total
  Mast Cell Degranulation, Deg. MC: 239
Skin mast cells [4]
  ultrastructural signs of mast cell activation (loss of electron dense granule content): obvious sign of activation
Skin mast cells [5]
  mast cell activation in capsaicin-treated animals: unaffected
Pleural mast cells; 10^-4 M
  Histamine Release (% total), Pleural + Calcium: 22.06 % total
  Histamine Release (% total), Pleural - Calcium: 34.244 % total
Pleural mast cells; 10^-5 M
  Histamine Release (% total), Pleural + Calcium: 2.102 % total
  Histamine Release (% total), Pleural - Calcium: 8.579 % total
Pleural mast cells; 10^-6 M
  Histamine Release (% total), Pleural + Calcium: 1.411 % total
  Histamine Release (% total), Pleural - Calcium: 4.253 % total
Pleural mast cells; in words, required absence of extracellular calcium ions
  histamine release from pleural mast cells: induced histamine release
Peritoneal mast cells; 10^-4 M
  Histamine Release (% total), Peritoneal Calcium: 25.5 % total
  Histamine Release (% total), Peritoneal + Calcium: 6.3 % total
Peritoneal mast cells; 10^-5 M
  Histamine Release (% total), Peritoneal Calcium: 6.9 % total
  Histamine Release (% total), Peritoneal + Calcium: 1.9 % total
Peritoneal mast cells; 10^-6 M
  Histamine Release (% total), Peritoneal Calcium: 4.9 % total
  Histamine Release (% total), Peritoneal + Calcium: 2.0 % total
Peritoneal mast cells; in words
  effect on peritoneal mast cells (histamine release): largely ineffective

## [D-Phe^12 Nle^21,38, Ala^32 ]rCRH(12-41) [CRH-α]
Skin mast cells [1]; antagonist 10^-4 M, CRH 10^-6 M
  inhibition of dye extravasation by CRH: could not inhibit
Skin mast cells [1]; plasma extravasation and mast cell degranulation
  block of the effect of CRH: did not block
Skin mast cells [3]; 10^-4 M
  Mast Cell Degranulation, % total deg.: 25 % total
  Mast Cell Degranulation, Deg. MC: 28

## substance P [SP]
Pleural mast cells; 10^-4 M
  Histamine Release (% total), Pleural + Calcium: 49.346 % total
  Histamine Release (% total), Pleural - Calcium: 54.591 % total
Pleural mast cells; 10^-5 M
  Histamine Release (% total), Pleural + Calcium: 22.919 % total
  Histamine Release (% total), Pleural - Calcium: 28.871 % total
Pleural mast cells; 10^-6 M
  Histamine Release (% total), Pleural + Calcium: 2.088 % total
  Histamine Release (% total), Pleural - Calcium: 8.538 % total
Peritoneal mast cells; 10^-5 M
  Histamine Release (% total), Peritoneal Calcium: 39.5 % total
